Where “and” joins values, the source holds several entries; their conditions need not be identical. Identical values can stand only once.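 Exposure lasted 48 hours, with cells grown in 96-well plates and compounds tested at five concentrations. GI50 is the concentration that inhibits growth by half. Definition used: TGI = concentration required for complete inhibition of growth.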
Experiments:
Experiment in all cases: NCI-60 cell line screen, 48 h
[1] = test system: NCI/ADR-RES ovarian
[2] = test system: SF-268 CNS
[3] = test system: MCF7 breast
[4] = test system: A549 NSCLC
[5] = test system: SW-620 colon
[6] = test system: OVCAR-3 ovarian
[7] = test system: MOLT-4 leukemia
[8] = test system: ACHN renal
[9] = test system: T-47D breast
[10] = test system: CAKI-1 renal

Row | SMILES | TGI [1] [µM] | TGI [2] [µM] | TGI [3] [µM] | TGI [4] [µM] | TGI [5] | TGI [6] [µM] | TGI [7] | TGI [8] [µM] | TGI [9] | TGI [10] | GI50 [1] | GI50 [2] [µM] | GI50 [3] | GI50 [4] | GI50 [5] | GI50 [6] | GI50 [7] | GI50 [8] | GI50 [9] | GI50 [10]
1 | CN(C)CCNCCN | > 100 | > 100 | > 100 | > 100 | > 100 µM | > 100 | > 100 µM | > 100 | > 100 µM | > 100 µM |  |  |  |  |  |  |  |  |  | 
2 | CC1CC(O)C(=O)C(O[C@@H]2C[C@@H]3CC[C@@H]4[C@H](CC[C@]5(C)C(C6=CC(=O)OC6)CC[C@]45O)[C@@]3(C=O)C[C@H]2O)O1 (some centres undefined) | 0.0678 | 0.146 | 0.152 | < 0.0199 | 0.158 µM | 0.0346 | 0.0991 µM | 0.0406 | 0.205 µM | 0.0597 µM |  |  |  |  |  |  |  |  |  | 
3 | C=CC(=O)N1CN(C(=O)C=C)CN(C(=O)C=C)C1 | > 100 | 50.6 | 15.5 | 81.7 | 5.16 µM | 7.99 | 8.05 µM | 4.49 | 12.8 µM | 3.7 µM | 6.81 µM | 11 | 3.65 µM | 21.2 µM | 2.16 µM | 2.57 µM | 2.71 µM | 1.89 µM | 2.32 µM | 1.63 µM
4 | COC(=O)C1=COC(C)C2CN3CCc4c([nH]c5ccccc45)C3CC12 (centres undefined) | > 100 | > 100 | > 100 | > 100 | 75.7 µM and > 100 µM | > 100 | 32.7 µM and > 100 µM | > 100 | 67.3 µM and > 100 µM | 85.6 µM and > 100 µM | 22.6 µM and > 100 µM |  | 32.1 µM and > 100 µM | 37.6 µM and > 100 µM | 22.8 µM and > 100 µM | 24.2 µM and > 100 µM | 11 µM and 28.3 µM | 32.1 µM and > 100 µM | 16.6 µM and > 100 µM | 21.2 µM and > 100 µM
5 | Cc1ccc(OCCOCCOCCOCCOc2ccc(C)n(O)c2=S)c(=S)n1O | > 100 | > 100 | 43.6 | > 100 | > 100 µM | 50.8 | > 100 µM | > 100 | > 100 µM | > 100 µM | < 0.0158 µM | 0.0482 | < 0.01 µM | 0.0449 µM | < 0.0127 µM | < 0.01 µM | < 0.01 µM | < 0.0147 µM | < 0.01 µM | < 0.0146 µM
6 | CC(C)c1[nH]nc2c1N=C(c1ccccc1Cl)c1cc([N+](=O)[O-])ccc1N2 | > 25 | > 25 | 24.3 | > 22.3 | > 25 µM | 13.1 | 20.6 µM | 20.4 | > 23 µM | > 13.7 µM | 6.37 µM | 7.92 | 4.53 µM | 5.18 µM | 2.2 µM | 4.68 µM | 6.76 µM | 5.45 µM | 8.75 µM | 2.53 µM
7 | O=C(Nc1cc(Cl)ccc1O)c1ccc(Nc2ccnc(C(F)(F)F)c2)cc1 | > 100 | > 100 | > 100 | > 100 | > 100 µM | 5.58 | 6.6 µM | 7.42 | 6.39 µM | 7.77 µM | 2.93 µM | 3.99 | 2.68 µM | 3.97 µM | 3.73 µM | 2.16 µM | 1.75 µM | 2.35 µM | 1.76 µM | 2.02 µM
8 | Cn1c(=O)c2c(nc(C(=N)SCC(=O)O)n2C)n(C)c1=O | > 100 | > 100 | > 100 | > 100 | > 100 µM | > 100 | 50.9 µM | > 100 | > 100 µM | 99 µM |  |  |  |  |  |  |  |  |  | 
9 | Cc1cc(N/N=C/c2ccccn2)nc2ccccc12 | 21.7 | 15.3 | 8.94 | 12.3 | 19.6 µM | 11 | 4.98 µM | 11.1 | 15.9 µM | 2.59 µM | 0.393 µM | 0.44 | 0.316 µM | 0.361 µM | 0.588 µM | 0.382 µM | 0.352 µM | 0.347 µM | 0.376 µM | 0.313 µM
10 | O=C1Nc2ccccc2/C1=C1\CCc2cc(O)ccc21 | > 25 | > 25 | > 25 | > 25 | > 25 µM | > 25 | > 25 µM | > 25 | > 25 µM | > 25 µM | 7.65 µM | 10.1 | 2.74 µM | 9.45 µM | 8.05 µM | 9.95 µM | 12.2 µM | 10.6 µM | 6.35 µM | 7.12 µM
11 | COc1cc2c(/C=N\N=C(N)N)c[nH]c2cc1C | 59.4 | 28.7 | 25.7 | > 100 | 29.6 µM | 27.3 | 27.2 µM | > 100 | 27.9 µM | > 100 µM | 22 µM | 12.5 | 13 µM | > 100 µM | 16.1 µM | 13.5 µM | 14.2 µM | 24.3 µM | 11.7 µM | 37.5 µM
12 | ClCCN(CCCl)c1ccc(CNc2ccccc2)cc1 | > 100 | > 100 | > 100 | > 100 | > 100 µM | > 100 | > 100 µM | > 100 | > 100 µM | > 100 µM | 9.78 µM | 4.25 | 4.19 µM | 4.36 µM | 10.6 µM | 15.2 µM | 2.81 µM | 2.76 µM | 5.91 µM | 1.39 µM
13 | COc1ccc(/C(C)=C(\c2ccc(OCCN3CCCCCC3)cc2)c2ccc(OC(=O)C3CCCCC3)cc2)cc1 | 4.78 | 4.33 | 2.88 | 4.04 | 3.15 µM | 3.13 | 2.54 µM | 3.56 | 3.33 µM | 2.61 µM | 1.61 µM | 1.16 | 0.015 µM | 1.12 µM | 0.948 µM | 1.16 µM | 0.497 µM | 1.73 µM | 0.405 µM | 0.705 µM
14 | COc1ccc(-c2nccn2-c2ccc(OC)cc2)cc1 | 49.4 | 74.4 | > 66.1 | > 80.5 | > 100 µM | 62.6 | 89.4 µM | > 57.4 | > 100 µM | > 69.5 µM | 20.5 µM | 22.9 | 24.4 µM | 25.1 µM | 25 µM | 21.6 µM | 27.4 µM | 5.64 µM | 65.4 µM | 22.9 µM

Source: PubChem BioAssay (NCI)
